Reference: paper PMC12406204 (Journal of Medicinal Chemistry, 2025)

Tests used:
CB2R = CB2R (Homo sapiens, UniProt P34972); test: CB2R radioligand binding competition ([3H]CP55,940); parameters: expressed in transfected cells; host or cells: HEK-293T (HEK-CB2 cell line); conditions: for Ki: displacement of [3H]CP 55,940, membranes of HEK-293T cells, n = 3; for SI Ki CB1R/Ki CB2R: selectivity index, affinity ratio; for CB2R % at 1 μM: percentage displacement of specific [3H]CP 55,940 binding at 1 μM, n = 2
CB1R = CB1R (Homo sapiens, UniProt P21554); test: CB1R radioligand binding competition ([3H]CP55,940); parameters: host or cells: CHO-CB1 C3 cell line; conditions: for Ki: displacement of [3H]CP 55,940, membranes of CHO-CB1 C3 cells, n = 3; for CB1R % at 1 μM: percentage displacement of specific [3H]CP 55,940 binding at 1 μM, n = 2
Chain of CB1R (P21554 whole entry): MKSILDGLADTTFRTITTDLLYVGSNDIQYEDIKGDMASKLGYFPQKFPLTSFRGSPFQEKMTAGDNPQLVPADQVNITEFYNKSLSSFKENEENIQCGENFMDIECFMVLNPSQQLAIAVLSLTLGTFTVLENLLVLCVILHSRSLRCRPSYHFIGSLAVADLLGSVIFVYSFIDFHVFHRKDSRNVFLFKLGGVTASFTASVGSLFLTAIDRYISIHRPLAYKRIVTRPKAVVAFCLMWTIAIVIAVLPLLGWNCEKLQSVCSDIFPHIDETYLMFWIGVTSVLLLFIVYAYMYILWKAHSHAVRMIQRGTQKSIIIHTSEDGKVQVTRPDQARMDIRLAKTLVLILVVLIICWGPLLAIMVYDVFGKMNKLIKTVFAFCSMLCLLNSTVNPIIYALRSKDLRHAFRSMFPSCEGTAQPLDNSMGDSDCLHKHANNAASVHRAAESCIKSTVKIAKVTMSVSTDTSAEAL

Chain of CB2R (P34972 whole entry): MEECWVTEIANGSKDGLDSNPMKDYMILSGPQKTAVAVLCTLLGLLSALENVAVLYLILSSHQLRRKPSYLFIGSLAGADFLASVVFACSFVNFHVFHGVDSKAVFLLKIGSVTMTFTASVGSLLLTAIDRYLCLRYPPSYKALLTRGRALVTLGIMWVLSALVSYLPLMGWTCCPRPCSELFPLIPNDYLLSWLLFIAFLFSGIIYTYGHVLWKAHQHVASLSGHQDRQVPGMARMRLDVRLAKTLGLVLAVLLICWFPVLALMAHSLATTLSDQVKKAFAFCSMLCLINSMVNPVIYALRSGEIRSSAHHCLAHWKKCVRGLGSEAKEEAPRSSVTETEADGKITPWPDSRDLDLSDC

Structure (SMILES) | Ki (CB2R) | SI Ki CB1R/Ki CB2R (CB2R) | Ki (CB1R) | CB2R % at 1 μM (CB2R) | CB1R % at 1 μM (CB1R)
CCCCCn1cc(C(=O)N2CCC[C@H]2C(=O)OC)c2ccccc21 [15a] | 0.189 ± 0.01 µM | 0.6 | 0.121 ± 0.006 µM | – | –
CCCCCn1cc(C(=O)N2CCC[C@@H]2C(=O)OC)c2ccccc21 [15b] | – | – | – | 25% | 4%
COC(=O)[C@@H]1CCCN1C(=O)c1cn(CCCCCF)c2ccccc12 [15c] | 0.0717 ± 0.002 µM | 0.8 | 0.0559 ± 0.0027 µM | – | –
COC(=O)[C@H]1CCCN1C(=O)c1cn(CCCCCF)c2ccccc12 [15d] | – | – | – | 26% | 3%
COC(=O)[C@@H]1CCCN1C(=O)c1cn(CC2CCCCC2)c2ccccc12 [15e] | 0.0383 ± 0.0021 µM | 0.3 | 0.0113 ± 0.0005 µM | – | –
COC(=O)[C@H]1CCCN1C(=O)c1cn(CC2CCCCC2)c2ccccc12 [15f] | 0.463 ± 0.011 µM | >100 | – | – | 32%
COC(=O)[C@@H]1CCCN1C(=O)c1cn(Cc2ccc(F)cc2)c2ccccc12 [15g] | 0.0477 ± 0.0019 µM | 0.3 | 0.0144 ± 0.0006 µM | – | –
COC(=O)[C@H]1CCCN1C(=O)c1cn(Cc2ccc(F)cc2)c2ccccc12 [15h] | 0.599 ± 0.013 µM | >100 | – | – | 10%
CCCCCn1nc(C(=O)N2CCC[C@H]2C(=O)OC)c2ccccc21 [15i] | 0.0759 ± 0.0022 µM | 4 | 0.337 ± 0.009 µM | – | –
CCCCCn1nc(C(=O)N2CCC[C@@H]2C(=O)OC)c2ccccc21 [15j] | 0.208 ± 0.005 µM | >100 | – | – | 4%
COC(=O)[C@@H]1CCCN1C(=O)c1nn(CCCCCF)c2ccccc12 [15k] | 0.0419 ± 0.0021 µM | 4 | 0.173 ± 0.005 µM | – | –
COC(=O)[C@H]1CCCN1C(=O)c1nn(CCCCCF)c2ccccc12 [15l] | 0.513 ± 0.003 µM | >100 | – | – | 1%
COC(=O)[C@@H]1CCCN1C(=O)c1nn(CC2CCCCC2)c2ccccc12 [15m] | 0.0207 ± 0.0006 µM | 3 | 0.0734 ± 0.0029 µM | – | –
COC(=O)[C@H]1CCCN1C(=O)c1nn(CC2CCCCC2)c2ccccc12 [15n] | 0.0993 ± 0.0028 µM | >100 | – | – | 2%
COC(=O)[C@@H]1CCCN1C(=O)c1nn(Cc2ccc(F)cc2)c2ccccc12 [15o] | 0.0165 ± 0.0011 µM | 3 | 0.0462 ± 0.0023 µM | – | –
COC(=O)[C@H]1CCCN1C(=O)c1nn(Cc2ccc(F)cc2)c2ccccc12 [15p] | 0.157 ± 0.004 µM | >100 | – | – | 5%
CCCCCn1cc(C(=O)N2CCCC[C@H]2C(=O)OC)c2ccccc21 [16a] | 0.114 ± 0.006 µM | 6 | 0.644 ± 0.013 µM | – | –
CCCCCn1cc(C(=O)N2CCCC[C@@H]2C(=O)OC)c2ccccc21 [16b] | 0.273 ± 0.004 µM | >100 | – | – | 18%
COC(=O)[C@@H]1CCCCN1C(=O)c1cn(CCCCCF)c2ccccc12 [16c] | 0.0841 ± 0.0019 µM | 8 | 0.716 ± 0.016 µM | – | –
COC(=O)[C@H]1CCCCN1C(=O)c1cn(CCCCCF)c2ccccc12 [16d] | 0.251 ± 0.007 µM | >100 | – | – | 24%
COC(=O)[C@@H]1CCCCN1C(=O)c1cn(CC2CCCCC2)c2ccccc12 [16e] | 0.0451 ± 0.0017 µM | 3 | 0.122 ± 0.008 µM | – | –
COC(=O)[C@H]1CCCCN1C(=O)c1cn(CC2CCCCC2)c2ccccc12 [16f] | 0.0931 ± 0.0033 µM | >100 | – | – | 37%
COC(=O)[C@@H]1CCCCN1C(=O)c1cn(Cc2ccc(F)cc2)c2ccccc12 [16g] | 0.0225 ± 0.0011 µM | 4 | 0.0903 ± 0.0023 µM | – | –
COC(=O)[C@H]1CCCCN1C(=O)c1cn(Cc2ccc(F)cc2)c2ccccc12 [16h] | 0.109 ± 0.004 µM | >100 | – | – | 35%
COC(=O)[C@@H]1CCCCN1C(=O)c1nn(CCCCCF)c2ccccc12 [16k] | 0.0106 ± 0.0007 µM | 37 | 0.392 ± 0.005 µM | – | –
COC(=O)[C@H]1CCCCN1C(=O)c1nn(CCCCCF)c2ccccc12 [16l] | 0.127 ± 0.005 µM | >100 | – | – | 5%

Structure (SMILES) | Ki (CB2R) | SI Ki CB1R/Ki CB2R (CB2R) | Ki (CB1R) | CB2R % at 1 μM (CB2R) | CB1R % at 1 μM (CB1R)
COC(=O)[C@@H]1CCCCN1C(=O)c1nn(CC2CCCCC2)c2ccccc12 [16m] | 0.0052 ± 0.0004 µM | 31 | 0.162 ± 0.003 µM | – | –
COC(=O)[C@H]1CCCCN1C(=O)c1nn(CC2CCCCC2)c2ccccc12 [16n] | 0.164 ± 0.005 µM | >100 | – | – | 3%
COC(=O)[C@@H]1CCCCN1C(=O)c1nn(Cc2ccc(F)cc2)c2ccccc12 [16o] | 0.0041 ± 0.00012 µM | 16 | 0.0654 ± 0.0024 µM | – | –
COC(=O)[C@H]1CCCCN1C(=O)c1nn(Cc2ccc(F)cc2)c2ccccc12 [16p] | 0.0484 ± 0.0018 µM | >100 | – | – | –
CCCCCn1cc(C(=O)N2CCC[C@H]2C(N)=O)c2ccccc21 [17a] | – | – | – | 24% | 2%
CCCCCn1cc(C(=O)N2CCC[C@@H]2C(N)=O)c2ccccc21 [17b] | – | – | – | 17% | 3%
NC(=O)[C@@H]1CCCN1C(=O)c1cn(CCCCCF)c2ccccc12 [17c] | – | – | – | 15% | 1%
NC(=O)[C@H]1CCCN1C(=O)c1cn(CCCCCF)c2ccccc12 [17d] | – | – | – | 16% | 5%
NC(=O)[C@@H]1CCCN1C(=O)c1cn(CC2CCCCC2)c2ccccc12 [17e] | 0.288 ± 0.007 µM | >100 | – | – | 6%
NC(=O)[C@H]1CCCN1C(=O)c1cn(CC2CCCCC2)c2ccccc12 [17f] | 0.411 ± 0.016 µM | >100 | – | – | 3%
NC(=O)[C@@H]1CCCN1C(=O)c1cn(Cc2ccc(F)cc2)c2ccccc12 [17g] | – | – | – | 20% | 3%
NC(=O)[C@H]1CCCN1C(=O)c1cn(Cc2ccc(F)cc2)c2ccccc12 [17h] | – | – | – | 7% | 4%
CCCCCn1nc(C(=O)N2CCC[C@H]2C(N)=O)c2ccccc21 [17i] | – | – | – | 31% | 2%
CCCCCn1nc(C(=O)N2CCC[C@@H]2C(N)=O)c2ccccc21 [17j] | – | – | – | 28% | 3%
NC(=O)[C@@H]1CCCN1C(=O)c1nn(CCCCCF)c2ccccc12 [17k] | – | – | – | 17% | 2%
NC(=O)[C@H]1CCCN1C(=O)c1nn(CCCCCF)c2ccccc12 [17l] | – | – | – | 25% | 4%
NC(=O)[C@@H]1CCCN1C(=O)c1nn(CC2CCCCC2)c2ccccc12 [17m] | – | – | – | 27% | 1%
NC(=O)[C@H]1CCCN1C(=O)c1nn(CC2CCCCC2)c2ccccc12 [17n] | – | – | – | 28% | 2%
NC(=O)[C@@H]1CCCN1C(=O)c1nn(Cc2ccc(F)cc2)c2ccccc12 [17o] | 0.628 ± 0.021 µM | >100 | – | – | 4%
NC(=O)[C@H]1CCCN1C(=O)c1nn(Cc2ccc(F)cc2)c2ccccc12 [17p] | – | – | – | 12% | 4%
CCCCCn1cc(C(=O)N2CCCC[C@H]2C(N)=O)c2ccccc21 [18a] | 0.111 ± 0.006 µM | >100 | – | – | 3%
CCCCCn1cc(C(=O)N2CCCC[C@@H]2C(N)=O)c2ccccc21 [18b] | 0.136 ± 0.005 µM | >100 | – | – | 10%
NC(=O)[C@@H]1CCCCN1C(=O)c1cn(CCCCCF)c2ccccc12 [18c] | 0.132 ± 0.004 µM | >100 | – | – | 7%
NC(=O)[C@H]1CCCCN1C(=O)c1cn(CCCCCF)c2ccccc12 [18d] | 0.169 ± 0.006 µM | >100 | – | – | 15%
NC(=O)[C@@H]1CCCCN1C(=O)c1cn(Cc2ccc(F)cc2)c2ccccc12 [18g] | 0.115 ± 0.005 µM | >100 | – | – | 21%
